These results are taken from patent publication US4529720A, “Antibiotic from Streptomyces clavulicerus” (Beecham Group, p.l.c., priority 1974, dated 1985).

Data set [1] deals with Staphylococcus aureus (Russell). The experiment in a line: Antibacterial synergism, microtitre MIC (Example 42). Format: cell-based.
Another data set concerns Staphylococcus aureus. The description is as above. As to conditions: Table 6. Format: cell-based.
Data set [2] has as its system Klebsiella aerogenes A. The experiment in a line: Growth inhibition, alone and combined (description). Format: cell-based. As to conditions: 5 μg/ml of clavulanic acid also present.
Data set [3] is described as follows: Hydrolysis of methyl ester in pH 7 phosphate buffer. Format: physicochemical. As to conditions: 1 mg/ml, 37° C., 0.05M phosphate buffer pH 7, followed over 2 hours. The protocol:
The reaction was followed by paper chromatography (bioautographic system). Using the butanol/ethanol/water system to follow the reaction over a period of 2 hours the zone of the methyl ester at Rf 0.79 decreased in size as the zone of clavulanic acid at Rf 0.12 increased.

The next data set has as its system bacteria. The experiment in a line: Tests for antibacterial activity in broth (Example 32). As to conditions: against bacteria resistant to these antibiotics. Format: cell-based.
The nature of the next data set: Stability in human blood. Format: in vitro ADME.
A further data set concerns Klebsiella aerogenes 62. Kind of data set: Antibacterial synergism, microtitre MIC (Example 42). As to conditions: Table 8; method of Example 42. Format: cell-based.
For data set [4], the system named is Klebsiella aerogenes A. The data set is described as above. Format: cell-based. As to conditions: Table 8; method of Example 42.
Data set [5] relates to Klebsiella aerogenes E 70. Described as above. Format: cell-based. As to conditions: Table 8; method of Example 42.

Where a name gives a salt, the structure may show the parent alone.

Consider `O=C(O)[C@H]1/C(=C/CO)O[C@@H]2CC(=O)N21` [clavulanic acid sodium salt, 3-(β-hydroxyethylidine)-7-oxo-4-oxa-1-azabicyclo[3,2,0]heptane-2-carboxylic acid sodium salt], for which the “Minimum Inhibitory Concentrations” value in data set [1] (agent alone, Table 6) came out at 15 µg/mL; in the data set on Staphylococcus aureus (agent alone), 62 µg/mL.
For the compound `O=C(Cc1cccs1)N[C@@H]1C(=O)N2C(C(=O)[O-])=C(C[n+]3ccccc3)CS[C@H]12` [Cephaloridine, cephaloridine], in data set [1] (clavulanic acid sodium salt at 1 μg/ml, compared with <0.03 μg/ml at 5 μg/ml, footnote of Table 6), the “Minimum Inhibitory Concentration of cephaloridine when synergist added at 1 μg/ml” value is reported as “Same value”. Besides, in the data set with Staphylococcus aureus (in presence of 5 μg/ml clavulanic acid sodium salt), the “Minimum Inhibitory Concentrations, Cephaloridine in presence of 5 μg/ml clavulanic acid sodium salt” value is 3.7 µg/mL.
Regarding `CC1(C)S[C@@H]2[C@H](NC(=O)Cc3ccccc3)C(=O)N2[C@H]1C(=O)O` [Benzylpenicillin, benzylpenicillin], the “concentration of penicillin inhibiting growth when clavulanic acid is also present” value in the data set with Klebsiella aerogenes A [2] is “less than 12.5 μg/ml”.
For `COC(=O)[C@H]1/C(=C/CO)O[C@@H]2CC(=O)N21` [clavulanic acid methyl ester], the “hydrolysis of the ester to clavulanic acid” value in data set [3] is given as “Slow conversion of the ester to clavulanic acid”; in [3] (listed as methyl ester), “slowly hydrolyse to clavulanic acid”. Besides, the “antibacterial synergism in combination with ampicillin or cephaloridine” value in the data set on bacteria is “marked antibacterial synergism”.
As for `O=C(O)[C@H]1/C(=C/CO)O[C@@H]2CC(=O)N21` [clavulanic acid, Z-(2R,5R)-3-(β-hydroxyethylidene)-7-oxo-4-oxa-1-azabicyclo[3,2,0]heptane-2-carboxylic acid], in the data set “Stability in human blood”, the “stability in human blood” value is “high stability in human blood”.
For the compound `CC1(C)S[C@@H]2[C@H](NC(=O)[C@H](N)c3ccccc3)C(=O)N2[C@H]1C(=O)O` [Ampicillin, ampicillin], the figures for the “M.I.C., Ampicillin + 5 μg/ml of Benzyl Ester of clavulanic acid” value (with Klebsiella aerogenes 62; with Klebsiella aerogenes A [4]; in [5]) were 3.9, 1.9 and 3.9, respectively. Also, the figures for the “M.I.C., Ampicillin + 5 μg/ml of Methyl Ester of clavulanic acid” value (in the data set with Klebsiella aerogenes 62; in the data set with Klebsiella aerogenes A [4]; in data set [5]) were 3.9, 1.9 and 3.9, respectively.
